From patent US11357749B2, “Methods for treating neutropenia” (Enzychem Lifesciences Corporation, priority 2014, dated 2022) come the findings set out here.

For assay [1], the system named is C3. Nature of the assay: C3 expression (RT-PCR) in IL-4/TNF-α treated HMC-1 cells. Type of assay: cell-based, human. Particulars: HMC-1 cells treated with IL-4 and TNF-α; PLAG 0.1 and 1 μg/mL. Here is the method:
A blood cell line, HMC-1 (human mast cell, American Type Culture Collection, ATCC, Rockville, Md.) is incubated and maintained at 37° C. under 5% CO2 humid conditions. The medium is IMDM (Life Technologies, Karlsruhe, Germany) containing 10% Fetal Calf Serum (FCS, HyClone, Logan, Utah), 2 mM […], 100 μg/ml penicillin, 100 μg/ml streptomycin (Life Technologies). The cultured HMC-1 cells (1×10^6 cell/ml) are pre-treated with 0.1 and 1 μg/mL concentration of PLAG, followed by treating with IL-4 (5 ng) and/or TNF-α (10 ng) to induce cellular activities.
The expressed C3 and its mRNA level change are observed by using RT-PCR (Reverse Transcriptase Polymerase Chain Reaction). The RT-PCR is carried out as follows: the total RNA is separated by the standard protocol and cDNA is synthesized using AccuScript High Fidelity 1st Strand cDNA Synthesis Kit (Stratagene) by the manufacturer's instructions. Two-step RT-PCR reaction is conducted using Oligo-dT primer and reverse transcriptase, pair of primer and Taq polymerase (Takara, Shiga, Japan). […] The product of PCR is separated using 1.5% agarose gel, dyed with ethidium bromide (EtBr), and visualized with Gel Doc 2000 UV trans-illuminator (Bio-Rad Laboratories, Hercules, Calif., USA), and the experimental data is analyzed using Quantity One software (Bio-Rad Laboratories).

Assay [2] relates to C3. Nature of the assay: C3 mRNA (RT-PCR) in HepG2 cells. Format: cell-based, human. Particulars: 2 hours. Here is the method:
A liver cell line, HepG2 (American Type Culture Collection, ATCC, Rockville, Md.), is incubated and maintained at 37° C., 5% CO2 humid atmosphere in DMEM medium. When HepG2 cells, which are known to produce complement in culture, are treated with PLAG, the activity of complement is reduced effectively, as confirmed by RT-PCR of mRNA. In the RT-PCR, 5×10^5 number of HepG2 cells/ml are distributed into 12 well plates and induced C3 for 12 hours with 10% FCS. Then PLAG is added and further cultured for 2 hours. Cells are harvested and mRNA is isolated and RT-PCR is carried out with specific primer of C3; GAPDH is used as an internal control.

In assay [3] the test system is Complement 3. The assay can be described thus: Complement 3 activation by chemotherapeutic agents in mouse model. Format: in vivo. Particulars: mice, Gemcitabine, Cyclophosphamide or Tamoxifen plus PLAG. Here is the method: The effect of PLAG for treatment of neutropenia and thrombocytopenia induced by chemotherapy (CIN) is evaluated in an animal model. Anti-cancer agents (Gemcitabine 50 mg/kg, Cyclosphosphamide 100 mg/kg, or Tamoxifen 50 mg/kg) are dosed daily for 3 weeks; PLAG is also administered 50 mg/kg daily for 3 weeks. After three weeks, neutrophils are harvested and counted with Auto Hematology Analyzer BC-5300.
It is believed that the neutropenia and thrombocytopenia of these agents and other chemotherapeutic agents may be due at least in part to a specific complement-mediated toxicity. This is seen in FIG. 6.

Assay [4] concerns platelets. Nature of the assay: Tamoxifen-induced platelet reduction in mice. Type of assay: in vivo. As to conditions: Tam 100 mg/kg + PLAG 5 mg/kg, after 15 hours. Here is the method: Mice are injected with 100 mg/kg phenylhydrazine (PHZ), i.p., to induce anemia and reduction of platelets. 5 mg/kg PLAG is administered to the mice orally and blood samples are taken at 3 and 13 days after. In addition, for comparison, normal mice which are not treated with phenylhydrazine are prepared as a normal group, and mice treated with PHZ and olive oil instead of PLAG are prepared as a control group. The blood samples taken from the mice are treated with 0.5 ml EDTA (Minicollect tube, Greiner bio-one, Austria) and concentration of platelet is measured using automated blood sample analyzer BC-6800 (Mindray, Shenzhen, China) by number of platelet per […] (k: 1,000).
The experiment is repeated using Tamoxifen (Tam), an anticancer agent, injected at the amount of 100 mg/kg, or lipopolysaccharide (LPS), an inflammation inducer, at the amount of 1 mg/kg to induce platelet reduction. Platelet concentration is measured 15 hours after PLAG treatment. For comparison, olive oil and PBS are used instead of PLAG as controls, respectively for the Tamoxifen and lipopolysaccharide experiment.

Assay [5] deals with neutrophils, lymphocytes and eosinophils. The assay can be described thus: Neutrophil, lymphocyte and eosinophil ratio after Tamoxifen and PLAG in mice. Particulars: Tam 100 mg/kg + PLAG 5 mg/kg, after 15 hours. Format: in vivo. How it is done: 100 mg/kg of anticancer agent Tamoxifen (Tam) is used to induce reduction of neutrophils, followed by treated with 5 mg/kg of PLAG and the ratios of neutrophil (NEU), lymphocyte (LYM), and eosinophil (EOS) are measured after 15 hours as in the previous experiment.

Assay [6] has as its system neutrophils. Nature of the assay: Migration of neutrophils in LPS-injected mice (blood and lymph counts). Type of assay: in vivo. How it is done:
Mice are injected with bacterial lipopolysaccharide (LPS) to provoke an inflammatory response, in the presence or absence of PLAG: […]

For assay [7], the system named is Complement 3. Nature of the assay: Clinical study in healthy subjects: Complement 3 in blood. Type of assay: in vivo, human. Here is the method:
A clinical study is conducted in Gwandong University MyungJi Hospital Clinical Study Center in Republic of Korea with 27 healthy patients to study immune-modulating effect of PLAG. Volunteers are tested for 30 days in vivo as oral administer (500 mg of PLAG per day) under a legitimate clinical approval. Complement 3 is counted using C3 assay kit. The analysis result is shown in FIG. 7, and change of immunoactivity by the administration of PLAG in healthy subjects is shown in Table 8 (effect of PLAG supplementation on immune function of peripheral blood after 4-wk intervention). As shown in FIG. 7 and Table 8, the majority of those who consume PLAG for a month (twenty-six (26) subjects out of 27 patients) show decreased complement 3 (C3), while the control group, who are treated with soybean oil, show both increase and decrease of C3.

In the case of `CCCCC/C=C\C/C=C\CCCCCCCC(=O)OC(COC(C)=O)COC(=O)CCCCCCCCCCCCCCC` (racemic) [PLAG, 1-palmitoyl-2-linoleoyl-3-acetylglycerol], in assay [1], the “expression of C3” value is “suppressed by PLAG on a concentration dependent basis”. For the same molecule, in assay [2] (HepG2, 1 microgram/ml), the “C3 expression (RT-PCR)” value is “somewhat”. Moreover, the “C3 expression (RT-PCR)” value in assay [2] (HepG2, 10 microgram/ml) was “entirely”. In assay [3], the “Complement 3 activation by chemotherapeutic agents” value was “largely blocked”. The “Platelet Conc.” value in assay [4] is on record as 780.7 ± 195.9 k/ul. Moreover, in assay [5], the “Eosinophil Ratio” value came out at 15.1 ± 0.3%, the Lymphocyte ratio is listed as 45.7 ± 4.1% and the “Neutrophil Ratio” value is listed as 35.2 ± 2.4%. Further, in assay [6] (LPS + PLAG), the “Neutrophil count in blood” value amounted to 3.41 k/μl and the “Neutrophil count in lymph” value is reported as 1.48 k/μl. Further, the “migration of neutrophils to the lymph node” value in assay [6] (LPS + PLAG vs LPS only) was “inhibits migration”. For the same molecule, in assay [7] (500 mg PLAG per day oral for a month), the “subjects showing decreased complement 3 (C3)” value was 26 subjects out of 27. Further, the “decrease of average concentration of C3 in blood” value in assay [7] (after administration of PLAG 500 mg per day, 30 days) is given as “about 10 mg/dL”. In addition, the “C3, After” value in assay [7] (healthy subjects n = 27, 500 mg PLAG per day oral, after 4-wk intervention) came to 99.7 ± 12.4 mg/dL. Further, in assay [7] (healthy subjects n = 27, before PLAG supplementation), the “C3, Before” value worked out at 109.5 ± 13.0 mg/dL.
